Target: T1, B. subtilis DnaA (Bacillus subtilis, UniProt P05648)
T1 construct: full-length, cloned in pSP015 with His14-SUMO-FLAG3 tag; His14-SUMO cleaved (FLAG3 kept where present); E. coli BL21(DE3)-pLysS
Experiment: competition with TNP-ATP fluorescence
Settings: pH 8, 5 mM magnesium acetate, 25 C; competitive with TNP-ATP, nucleotide binding pocket

T1 sequence (P05648 whole entry): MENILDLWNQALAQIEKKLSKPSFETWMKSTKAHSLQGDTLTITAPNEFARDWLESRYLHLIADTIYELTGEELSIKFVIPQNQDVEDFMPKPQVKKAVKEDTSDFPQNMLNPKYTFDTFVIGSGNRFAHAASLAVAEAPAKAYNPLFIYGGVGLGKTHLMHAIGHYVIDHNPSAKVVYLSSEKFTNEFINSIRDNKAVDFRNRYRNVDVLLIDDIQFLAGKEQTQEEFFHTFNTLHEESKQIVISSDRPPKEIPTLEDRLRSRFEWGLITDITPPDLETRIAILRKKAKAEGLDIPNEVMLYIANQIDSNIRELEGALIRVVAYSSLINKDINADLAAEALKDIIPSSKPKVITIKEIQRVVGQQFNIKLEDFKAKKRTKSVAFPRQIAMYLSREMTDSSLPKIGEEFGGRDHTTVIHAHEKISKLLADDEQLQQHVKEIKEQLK

SMILES: Nc1ncnc2c1ncn2[C@@H]1O[C@H](COP(=O)(O)OP(=O)(O)OP(=O)(O)O)[C@@H](O)[C@H]1O [ATP]
- competition with TNP-ATP fluorescence: can be competed away by addition of unlabelled ATP

Reference: publication PMC8287927, “Evidence for a chromosome origin unwinding system broadly conserved in bacteria” (Nucleic Acids Research, 2021)
